Key:
[1] = target: T1, Muscarinic acetylcholine receptor M2 (Homo sapiens, UniProt P08172); assay type: functional, cell-based
T1 sequence (P08172 whole entry): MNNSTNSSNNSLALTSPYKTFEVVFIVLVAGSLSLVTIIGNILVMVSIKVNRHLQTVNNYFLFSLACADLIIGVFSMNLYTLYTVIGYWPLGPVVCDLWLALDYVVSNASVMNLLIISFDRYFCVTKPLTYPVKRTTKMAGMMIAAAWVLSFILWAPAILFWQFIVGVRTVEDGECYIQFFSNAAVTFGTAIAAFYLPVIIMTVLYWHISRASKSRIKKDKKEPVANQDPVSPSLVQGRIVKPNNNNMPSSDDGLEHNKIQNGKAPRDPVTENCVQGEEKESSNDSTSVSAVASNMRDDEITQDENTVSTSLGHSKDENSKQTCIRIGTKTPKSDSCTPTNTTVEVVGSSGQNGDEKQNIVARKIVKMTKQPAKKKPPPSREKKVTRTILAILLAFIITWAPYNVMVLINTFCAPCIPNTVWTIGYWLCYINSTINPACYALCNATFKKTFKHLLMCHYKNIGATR

[2] = target: T2, Alpha-2A adrenergic receptor (Homo sapiens, UniProt P08913); assay type: functional, cell-based
T2 sequence (P08913 whole entry): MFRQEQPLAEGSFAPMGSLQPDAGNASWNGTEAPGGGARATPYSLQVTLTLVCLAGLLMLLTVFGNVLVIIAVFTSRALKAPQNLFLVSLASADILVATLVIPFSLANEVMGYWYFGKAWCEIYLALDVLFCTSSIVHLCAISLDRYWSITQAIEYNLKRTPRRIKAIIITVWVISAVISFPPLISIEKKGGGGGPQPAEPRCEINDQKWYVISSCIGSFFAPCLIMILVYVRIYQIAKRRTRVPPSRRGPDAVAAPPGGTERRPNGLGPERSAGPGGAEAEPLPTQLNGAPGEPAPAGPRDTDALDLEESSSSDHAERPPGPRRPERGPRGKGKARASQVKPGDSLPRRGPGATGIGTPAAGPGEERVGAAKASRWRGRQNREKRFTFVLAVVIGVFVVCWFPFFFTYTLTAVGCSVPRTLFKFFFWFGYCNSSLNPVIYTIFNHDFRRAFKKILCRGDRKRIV

Vasopressin V2 receptor = Vasopressin V2 receptor (Homo sapiens, UniProt P30518)
[3] = target: Growth hormone secretagogue receptor type 1 (Homo sapiens, UniProt Q92847)
Progesterone receptor = target: T3, Progesterone receptor (Homo sapiens, UniProt P06401); assay type: functional
T3 sequence (P06401 whole entry): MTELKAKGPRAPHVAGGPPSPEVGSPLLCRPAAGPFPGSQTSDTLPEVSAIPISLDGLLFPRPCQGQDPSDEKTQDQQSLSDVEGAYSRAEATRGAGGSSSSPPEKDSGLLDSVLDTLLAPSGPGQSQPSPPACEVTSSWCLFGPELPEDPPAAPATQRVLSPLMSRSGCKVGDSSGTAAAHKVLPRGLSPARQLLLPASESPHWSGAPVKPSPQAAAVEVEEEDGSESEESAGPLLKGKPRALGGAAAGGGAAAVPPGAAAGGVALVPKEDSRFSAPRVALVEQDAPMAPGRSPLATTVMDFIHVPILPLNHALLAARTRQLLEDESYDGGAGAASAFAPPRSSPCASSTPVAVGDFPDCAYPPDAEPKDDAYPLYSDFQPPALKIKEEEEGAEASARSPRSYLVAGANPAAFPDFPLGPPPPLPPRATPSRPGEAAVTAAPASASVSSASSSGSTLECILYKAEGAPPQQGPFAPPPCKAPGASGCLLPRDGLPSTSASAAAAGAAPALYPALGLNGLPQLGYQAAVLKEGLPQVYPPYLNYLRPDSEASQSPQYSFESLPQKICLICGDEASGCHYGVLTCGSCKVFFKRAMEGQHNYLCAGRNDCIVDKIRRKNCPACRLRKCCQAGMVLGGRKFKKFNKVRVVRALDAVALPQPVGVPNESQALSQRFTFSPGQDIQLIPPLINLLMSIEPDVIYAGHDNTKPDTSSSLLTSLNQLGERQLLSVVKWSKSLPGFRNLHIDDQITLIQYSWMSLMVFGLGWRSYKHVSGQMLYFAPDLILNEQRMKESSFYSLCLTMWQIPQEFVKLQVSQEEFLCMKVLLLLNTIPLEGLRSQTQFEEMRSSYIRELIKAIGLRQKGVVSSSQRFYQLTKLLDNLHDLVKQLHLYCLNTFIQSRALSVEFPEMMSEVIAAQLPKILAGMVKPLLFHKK

[4] = target: Glutamate receptor ionotropic, NMDA 1 (Rattus norvegicus, UniProt P35439)
Adenosine receptor A1 = target: T4, Adenosine receptor A1 (Homo sapiens, UniProt P30542)
T4 sequence (P30542 whole entry): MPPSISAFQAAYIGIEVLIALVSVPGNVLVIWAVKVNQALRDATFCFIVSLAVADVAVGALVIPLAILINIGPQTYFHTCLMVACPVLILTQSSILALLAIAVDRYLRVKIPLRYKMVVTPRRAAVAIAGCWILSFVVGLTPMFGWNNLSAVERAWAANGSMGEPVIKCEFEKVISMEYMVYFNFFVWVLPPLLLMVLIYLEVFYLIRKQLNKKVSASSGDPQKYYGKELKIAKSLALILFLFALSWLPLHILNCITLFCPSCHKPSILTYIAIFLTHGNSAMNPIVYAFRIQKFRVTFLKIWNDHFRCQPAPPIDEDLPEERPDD

[5] = target: T5, Alpha-2C adrenergic receptor (Homo sapiens, UniProt P18825); assay type: functional
T5 sequence (P18825 whole entry): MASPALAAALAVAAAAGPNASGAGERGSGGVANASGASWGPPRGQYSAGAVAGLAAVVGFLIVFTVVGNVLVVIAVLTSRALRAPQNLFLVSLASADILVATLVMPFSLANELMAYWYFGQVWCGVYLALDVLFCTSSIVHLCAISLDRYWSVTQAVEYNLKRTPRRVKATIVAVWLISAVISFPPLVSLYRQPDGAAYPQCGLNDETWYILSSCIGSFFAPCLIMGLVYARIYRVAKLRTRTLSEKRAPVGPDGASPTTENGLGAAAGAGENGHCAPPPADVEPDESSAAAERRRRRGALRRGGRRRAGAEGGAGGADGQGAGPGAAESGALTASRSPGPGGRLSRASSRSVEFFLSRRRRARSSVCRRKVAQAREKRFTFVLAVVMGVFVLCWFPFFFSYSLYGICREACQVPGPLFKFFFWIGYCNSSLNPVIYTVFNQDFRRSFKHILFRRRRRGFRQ

[6] = target: Beta-2 adrenergic receptor (Homo sapiens, UniProt P07550)
Also: assay procedure not described here.

Growth hormone secretagogue receptor type 1, sequence (Q92847 whole entry): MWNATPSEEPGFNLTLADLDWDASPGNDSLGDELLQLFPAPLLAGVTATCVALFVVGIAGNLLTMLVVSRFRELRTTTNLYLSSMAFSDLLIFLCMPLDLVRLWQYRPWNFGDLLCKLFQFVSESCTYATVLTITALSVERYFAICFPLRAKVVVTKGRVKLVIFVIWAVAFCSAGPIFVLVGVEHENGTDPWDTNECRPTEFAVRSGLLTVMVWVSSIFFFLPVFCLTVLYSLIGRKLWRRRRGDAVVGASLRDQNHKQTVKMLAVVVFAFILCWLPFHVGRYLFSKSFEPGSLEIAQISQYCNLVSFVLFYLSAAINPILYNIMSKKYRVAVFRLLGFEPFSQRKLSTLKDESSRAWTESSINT
Beta-2 adrenergic receptor, sequence (P07550 whole entry): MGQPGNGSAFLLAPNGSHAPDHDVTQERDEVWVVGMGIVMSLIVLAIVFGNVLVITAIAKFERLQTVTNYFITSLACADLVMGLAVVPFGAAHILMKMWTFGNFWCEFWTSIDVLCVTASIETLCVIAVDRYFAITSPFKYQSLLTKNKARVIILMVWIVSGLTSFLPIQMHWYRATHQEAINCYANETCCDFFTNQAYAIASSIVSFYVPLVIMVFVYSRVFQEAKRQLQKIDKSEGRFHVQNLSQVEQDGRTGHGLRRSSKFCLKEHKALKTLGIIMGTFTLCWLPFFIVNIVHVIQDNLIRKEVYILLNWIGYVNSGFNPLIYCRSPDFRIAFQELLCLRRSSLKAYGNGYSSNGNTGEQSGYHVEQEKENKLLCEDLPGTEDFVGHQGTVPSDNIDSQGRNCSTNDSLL
Vasopressin V2 receptor, sequence (P30518 whole entry): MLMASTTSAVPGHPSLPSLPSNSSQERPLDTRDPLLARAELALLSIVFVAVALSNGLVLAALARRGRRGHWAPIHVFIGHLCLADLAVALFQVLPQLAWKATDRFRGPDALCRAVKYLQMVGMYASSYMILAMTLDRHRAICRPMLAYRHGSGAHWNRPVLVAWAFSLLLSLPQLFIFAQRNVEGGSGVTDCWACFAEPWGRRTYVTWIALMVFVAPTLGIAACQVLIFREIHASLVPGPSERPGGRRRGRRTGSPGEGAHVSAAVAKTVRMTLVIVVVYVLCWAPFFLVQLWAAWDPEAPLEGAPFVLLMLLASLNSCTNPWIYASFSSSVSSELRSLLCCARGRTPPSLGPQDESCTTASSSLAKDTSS

SMILES	AC50 [1] [µM]	AC50 [2] [µM]	AC50 (Vasopressin V2 receptor) [µM]	AC50 [3] [µM]	AC50 (Progesterone receptor) [µM]	AC50 [4] [µM]	AC50 (Adenosine receptor A1) [µM]	AC50 [5] [µM]	AC50 [6] [µM]
Oc1ccc2c(c1)[C@@]13CCCC[C@@]1(O)[C@@H](C2)N(CC1CCC1)CC3 [BUTORPHANOL]	> 30	> 30	> 30	> 30	> 30	> 30	> 30	> 30	–
Cn1cnc2c(F)c(Nc3ccc(Br)cc3Cl)c(C(=O)NOCCO)cc21 [SELUMETINIB]	–	–	–	–	–	–	–	> 10	> 10
CN(C(=O)c1c(O)c2ccccc2n(C)c1=O)c1ccccc1 [ROQUINIMEX]	–	–	–	–	> 30	–	–	> 30	–
Cc1ncc2n1-c1ccc(Cl)cc1C(c1ccccc1F)=NC2 [MIDAZOLAM]	> 10	> 10	> 30	> 30	–	> 10	> 30	> 10	> 10
C=C1/C(=C\C=C2/CCC[C@]3(C)[C@@H]([C@H](C)/C=C/[C@@H](O)C4CC4)CC[C@@H]23)C[C@@H](O)C[C@@H]1O [CALCIPOTRIENE]	> 30	> 30	> 30	> 30	> 30	> 30	> 30	> 30	> 30
C#CCOc1ccc(N)cc1C(=O)NCCCC [PARSALMIDE]	> 30	> 30	> 30	> 30	> 30	> 30	> 30	> 30	–
CCC(COC(=O)c1cc(OC)c(OC)c(OC)c1)(c1ccccc1)N(C)C (centres undefined) [TRIMEBUTINE]	> 30	> 30	> 30	> 30	> 30	> 30	> 30	> 30	> 30
COc1ccc(-c2noc(CC(=O)O)c2-c2ccc(OC)cc2)cc1 [MOFEZOLAC]	> 30	> 30	> 30	> 30	> 30	> 30	> 30	> 30	> 30
CC(=O)O[C@H](CC(=O)[O-])C[N+](C)(C)C [ACETYLCARNITINE]	> 30	> 30	> 30	> 30	> 30	> 30	> 30	> 30	> 30
O=C(O)c1ccccc1Nc1cc(Cl)ccc1C(=O)O [LOBENZARIT]	> 30	> 30	> 30	> 30	> 30	25	> 30	> 30	> 30
C/C(=C\C(=O)OCCCCCCCCC(=O)O)C[C@@H]1OC[C@H](C[C@@H]2O[C@H]2[C@@H](C)[C@H](C)O)[C@@H](O)[C@H]1O [MUPIROCIN]	> 10	> 10	> 10	> 10	> 10	> 10	> 10	> 10	> 10
Cn1c(=O)cc(N2CCC[C@@H](N)C2)n(Cc2ccccc2C#N)c1=O [ALOGLIPTIN]	–	–	> 30	> 30	–	> 10	> 30	> 10	> 10
CCN(CC)CCN1C(=O)CN=C(c2ccccc2F)c2cc(Cl)ccc21 [FLURAZEPAM]	> 10	> 10	> 30	22.9	–	> 10	> 30	> 10	> 10
CC(=O)OCC(=O)[C@@]1(O)[C@H](C)C[C@H]2[C@@H]3CCC4=CC(=O)C=C[C@]4(C)[C@@]3(F)[C@@H](O)C[C@@]21C [DEXAMETHASONE ACETATE]	> 10	> 10	> 30	> 30	–	> 10	> 30	> 10	> 10
CCN1CCCC1CNC(=O)c1cc(S(=O)(=O)CC)c(N)cc1OC (centres undefined) [AMISULPRIDE]	> 30	13	> 30	> 30	> 30	> 30	> 30	0.71	–
Nc1cc(-c2ccncc2)c[nH]c1=O [INAMRINONE]	> 10	> 10	> 30	> 30	–	> 10	> 30	> 10	> 10
COc1cc2ncnc(Nc3ccc(F)c(Cl)c3)c2cc1NC(=O)/C=C/CN1CCCCC1 [DACOMITINIB ANHYDROUS]	> 30	–	–	–	> 30	–	–	21	–
CC(=O)[C@]1(O)Cc2c(O)c3c(c(O)c2[C@@H](O[C@H]2C[C@H](N)[C@H](O)[C@H](C)O2)C1)C(=O)c1ccccc1C3=O [IDARUBICIN]	–	–	> 10	7.7	5.8	> 30	> 10	–	> 30
NC(=O)CN1CCCC1=O	> 30	> 30	> 30	> 30	> 30	> 30	> 30	> 30	–
OCc1cc(C(O)CNCCCCCCOCCCCc2ccccc2)ccc1O (centres undefined) [SALMETEROL]	–	> 10	> 30	> 30	> 30	> 10	> 30	> 10	–

Source: ChEMBL document CHEMBL5291721, “A preclinical secondary pharmacology resource illuminates target-adverse drug reaction associations of marketed drugs” (Nat Commun, 2023)
